Data published in the NIST ThermoML archive (doi:10.1021/je8001442).

Assay: excess molar enthalpy (molar enthalpy of mixing); xn = mol fraction of the nth substance listed
Conditions: Fluid (supercritical or subcritical phases), Flow calorimetry

CC(C)OC(C)C [diisopropyl ether] + O=C=O
excess molar enthalpy [kcal/mol]
Conditions	298.15 K	303.15 K	308.15 K
5000 kPa, x2 = 0.1255	-0.279	-0.251	-0.293
5000 kPa, x2 = 0.2326	-0.527	-0.526	-0.53
5000 kPa, x2 = 0.3249	-0.734	-0.741	-0.745
5000 kPa, x2 = 0.4054	-0.913	-0.922	-0.924
5000 kPa, x2 = 0.4762	-1.07	-1.08	-1.09
5000 kPa, x2 = 0.5389	-1.2	-1.22	-1.22
5000 kPa, x2 = 0.5949	-1.33	-1.35	-1.34
5000 kPa, x2 = 0.6452	-1.45	-1.46	-1.45
5000 kPa, x2 = 0.6906	-1.55	-1.55	-1.55
5000 kPa, x2 = 0.7317	-1.62	-1.64	–
5000 kPa, x2 = 0.7692	-1.71	–	–
5000 kPa, x2 = 0.8036	-1.79	–	–
5000 kPa, x2 = 0.8351	-1.85	–	–
5500 kPa, x2 = 0.1263	-0.277	-0.278	-0.275
5500 kPa, x2 = 0.2338	-0.496	-0.505	-0.525
5500 kPa, x2 = 0.3265	-0.682	-0.715	-0.709
5500 kPa, x2 = 0.4071	-0.861	-0.881	-0.891
5500 kPa, x2 = 0.478	-0.991	-1.03	-1.04
5500 kPa, x2 = 0.5407	-1.13	-1.16	-1.18
5500 kPa, x2 = 0.5966	-1.25	-1.28	-1.29
5500 kPa, x2 = 0.6468	-1.34	-1.38	-1.4
5500 kPa, x2 = 0.6921	-1.45	-1.48	-1.49
5500 kPa, x2 = 0.7331	-1.52	-1.56	-1.57
5500 kPa, x2 = 0.7705	-1.61	-1.64	–
5500 kPa, x2 = 0.8047	-1.67	-1.69	–
5500 kPa, x2 = 0.8361	-1.74	–	–
5500 kPa, x2 = 0.865	-1.78	–	–
5500 kPa, x2 = 0.8918	-1.82	–	–
5500 kPa, x2 = 0.9019	-1.83	–	–
6000 kPa, x2 = 0.127	-0.232	-0.255	-0.277
6000 kPa, x2 = 0.235	-0.442	-0.479	-0.494
6000 kPa, x2 = 0.3279	-0.621	-0.675	-0.693
6000 kPa, x2 = 0.4087	-0.761	-0.839	-0.853
6000 kPa, x2 = 0.4796	-0.89	-0.973	-1.02
6000 kPa, x2 = 0.5423	-1.01	-1.09	-1.12
6000 kPa, x2 = 0.5982	-1.09	-1.21	-1.22
6000 kPa, x2 = 0.6483	-1.19	-1.32	-1.34
6000 kPa, x2 = 0.6934	-1.27	-1.4	-1.42
6000 kPa, x2 = 0.7344	-1.33	-1.48	-1.49
6000 kPa, x2 = 0.7716	-1.4	-1.54	-1.56
6000 kPa, x2 = 0.8057	-1.48	-1.6	-1.61
6000 kPa, x2 = 0.8248	–	–	-1.64
6000 kPa, x2 = 0.837	-1.52	-1.66	–
6000 kPa, x2 = 0.8658	-1.59	-1.7	–
6000 kPa, x2 = 0.8924	-1.63	-1.71	–
6000 kPa, x2 = 0.9171	-1.65	–	–
6000 kPa, x2 = 0.931	-1.63	–	–
6000 kPa, x2 = 0.94	-1.67	–	–
6000 kPa, x2 = 0.9614	-1.64	–	–
6000 kPa, x2 = 0.9813	-1.48	–	–
6500 kPa, x2 = 0.1277	–	–	-0.254
6500 kPa, x2 = 0.2361	–	–	-0.464
6500 kPa, x2 = 0.3292	–	–	-0.638
6500 kPa, x2 = 0.4101	–	–	-0.787
6500 kPa, x2 = 0.4811	–	–	-0.92
6500 kPa, x2 = 0.5438	–	–	-1.04
6500 kPa, x2 = 0.5996	–	–	-1.14
6500 kPa, x2 = 0.6496	–	–	-1.24
6500 kPa, x2 = 0.6947	–	–	-1.33
6500 kPa, x2 = 0.7355	–	–	-1.39
6500 kPa, x2 = 0.7727	–	–	-1.45
6500 kPa, x2 = 0.8066	–	–	-1.5
6500 kPa, x2 = 0.8378	–	–	-1.56
6500 kPa, x2 = 0.8665	–	–	-1.6
7000 kPa, x2 = 0.1283	–	–	-0.232
7000 kPa, x2 = 0.237	–	–	-0.421
7000 kPa, x2 = 0.3304	–	–	-0.587
7000 kPa, x2 = 0.4114	–	–	-0.728
7000 kPa, x2 = 0.4824	–	–	-0.857
7000 kPa, x2 = 0.5451	–	–	-0.95
7000 kPa, x2 = 0.6009	–	–	-1.05
7000 kPa, x2 = 0.6509	–	–	-1.13
7000 kPa, x2 = 0.6958	–	–	-1.21
7000 kPa, x2 = 0.7366	–	–	-1.26
7000 kPa, x2 = 0.7736	–	–	-1.33
7000 kPa, x2 = 0.8075	–	–	-1.38
7000 kPa, x2 = 0.8385	–	–	-1.42
7000 kPa, x2 = 0.8671	–	–	-1.44
7000 kPa, x2 = 0.8935	–	–	-1.46
7000 kPa, x2 = 0.9179	–	–	-1.47
7500 kPa, x2 = 0.1289	–	–	-0.2
7500 kPa, x2 = 0.238	–	–	-0.356
7500 kPa, x2 = 0.3315	–	–	-0.488
7500 kPa, x2 = 0.4127	–	–	-0.625
7500 kPa, x2 = 0.4837	–	–	-0.727
7500 kPa, x2 = 0.5464	–	–	-0.819
7500 kPa, x2 = 0.6021	–	–	-0.904
7500 kPa, x2 = 0.652	–	–	-0.973
7500 kPa, x2 = 0.6969	–	–	-1.04
7500 kPa, x2 = 0.7376	–	–	-1.1
7500 kPa, x2 = 0.7745	–	–	-1.15
7500 kPa, x2 = 0.8083	–	–	-1.19
7500 kPa, x2 = 0.8392	–	–	-1.24
7500 kPa, x2 = 0.8677	–	–	-1.25
7500 kPa, x2 = 0.894	–	–	-1.28
7500 kPa, x2 = 0.9183	–	–	-1.26
7500 kPa, x2 = 0.9409	–	–	-1.24
7500 kPa, x2 = 0.962	–	–	-1.17
